Like-named read-outs stand apart in the source and are kept apart here.
Biological target: T1, human mGluR5a receptor (Homo sapiens, UniProt P41594)
T1 construct: cDNA subcloned into pcDNA3.1(-)
Experiment: Cell-based functional Ca2+ mobilization assay (FDSS), potentiation of glutamate EC20 response
Details: for pEC50 / EC50: HEK cells transfected with human mGluR5 (H10H or H12H), in presence of EC20 glutamate; for Emax (%) / Emax: maximum % effect in concentration-response curve, as percent of response to maximally effective glutamate
Summary of the method: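 HEK293A cells stably expressing human mGluR5a (H10H or H12H clones), plated overnight in glutamate-glutamine-free medium, loaded with Ca2+-sensitive dye (e.g. Fluo-4) and read on FDSS.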

T1 sequence (P41594 21-1180 isoform P41594-2 limits assumed): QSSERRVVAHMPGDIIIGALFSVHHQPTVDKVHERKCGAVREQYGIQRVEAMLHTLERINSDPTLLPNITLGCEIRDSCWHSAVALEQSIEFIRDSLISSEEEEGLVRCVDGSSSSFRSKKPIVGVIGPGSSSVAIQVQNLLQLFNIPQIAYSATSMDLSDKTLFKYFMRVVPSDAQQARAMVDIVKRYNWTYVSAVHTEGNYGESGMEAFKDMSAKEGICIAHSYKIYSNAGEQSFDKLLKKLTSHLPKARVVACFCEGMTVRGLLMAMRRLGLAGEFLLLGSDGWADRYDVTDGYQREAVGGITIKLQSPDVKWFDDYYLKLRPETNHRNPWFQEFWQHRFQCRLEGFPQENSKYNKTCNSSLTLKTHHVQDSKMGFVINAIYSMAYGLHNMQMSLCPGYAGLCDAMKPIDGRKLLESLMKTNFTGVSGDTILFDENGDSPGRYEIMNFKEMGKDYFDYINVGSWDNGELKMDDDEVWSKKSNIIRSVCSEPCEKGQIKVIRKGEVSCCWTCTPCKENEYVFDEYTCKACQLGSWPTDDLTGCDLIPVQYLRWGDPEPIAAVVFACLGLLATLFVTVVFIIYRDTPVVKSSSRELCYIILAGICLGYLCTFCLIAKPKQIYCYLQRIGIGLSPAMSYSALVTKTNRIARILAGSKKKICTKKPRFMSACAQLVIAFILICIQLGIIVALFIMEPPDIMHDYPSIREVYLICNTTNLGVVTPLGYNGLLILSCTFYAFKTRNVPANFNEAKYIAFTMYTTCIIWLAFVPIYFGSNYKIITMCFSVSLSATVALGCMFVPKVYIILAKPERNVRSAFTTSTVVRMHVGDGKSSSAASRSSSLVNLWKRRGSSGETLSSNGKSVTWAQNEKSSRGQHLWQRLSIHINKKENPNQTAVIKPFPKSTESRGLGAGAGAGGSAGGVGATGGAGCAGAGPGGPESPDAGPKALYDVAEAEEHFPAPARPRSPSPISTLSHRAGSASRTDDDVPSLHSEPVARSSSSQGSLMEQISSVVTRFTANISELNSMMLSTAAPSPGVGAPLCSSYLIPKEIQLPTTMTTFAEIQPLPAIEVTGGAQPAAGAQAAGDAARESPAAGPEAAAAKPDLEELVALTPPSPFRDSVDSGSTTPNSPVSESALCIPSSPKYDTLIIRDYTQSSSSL

| Structure (SMILES) | pEC50 | EC50 (read-out: EC50) | Emax (%) | Emax | EC50 (read-out: pEC50 (converted)) |
| --- | --- | --- | --- | --- | --- |
| O=C1c2cc(COc3ccccc3)nn2C(F)CN1c1ccc(F)cc1 (racemic) [Example 271] | 7.05 | 89 nM | 66% | – | – |
| O=C1c2cc(COc3ccccn3)nn2CCN1c1ccc(F)cn1 [Example 172] | 5.99 | 1020 nM | 64% | – | – |
| O=C1c2cc(COc3ccccc3)nn2CC(CO)N1c1ccc(F)cc1 (stereo not drawn) [Example 265] | 5.65 | 2240 nM | 60% | – | – |
| O=C1c2cc(COc3ccccc3)nn2CCN1c1cc(F)cc2cccnc12 [Example 372] | – | 130 nM | – | 67% | – |
| O=C1c2cc(COc3ccccc3)nn2CCN1c1ccc(F)c2ccccc12 [Example 368] | – | – | – | 69% | 12.9 nM |
| CC1Cn2nc(COc3ccccn3)cc2C(=O)N1c1ccc(F)cc1 (stereo not drawn) [Example 247] | 6.23 | 589 nM | 73% | – | – |
| CC(Oc1ccccc1)c1cc2n(n1)CCN(c1ccc(F)cc1)C2=O (racemic) [Example 258] | <5.00 | > 10000 nM | 65% | – | – |
| Cc1nc(N2CC(C)n3nc(COc4ccccc4)cc3C2=O)ccc1F (single isomer, unassigned) [Example 135] | 7.00 | 100 nM | 56% | – | – |
| O=C1c2cc(COc3ccccc3)nn2CC(CF)N1c1ccc(F)cc1 (stereo not drawn) [Example 266] | 6.94 | 115 nM | 65% | – | – |
| O=C1c2cc(COc3cccc(F)c3)nn2CCN1c1ccc(F)cc1 [Example 188] | 6.83 | 148 nM | 66% | – | – |
| Cc1cc(N2CCn3nc(COc4ccc(F)cc4)cc3C2=O)ccc1F [Example 225] | – | 61 nM | – | 58% | – |
| COc1cncc(N2CCn3nc(COc4ccccn4)cc3C2=O)n1 [Example 213] | – | 660 nM | – | 56% | – |
| CC1CN(c2ccc(F)cc2)C(=O)c2cc(COc3ccccc3)nn21 (single isomer, unassigned) [Example 130] | 7.08 | 83 nM | 71% | – | – |
| O=C1c2cc(COc3ccccc3)nn2CCN1c1cccc(C2CCNCC2)n1 [Example 275] | <4.52 | > 30200 nM | 36% | – | – |
| Cc1ccccc1N1CCn2nc(COc3ccccn3)cc2C1=O [Example 219] | 6.59 | 260 nM | 67% | – | – |
| O=C1c2cc(COc3ccccc3)nn2CCN1c1cccc(C2CCOCC2)n1 [Example 274] | 5.59 | 2570 nM | 65% | – | – |
| CC1CN(CC2CC2)C(=O)c2cc(COc3ccccc3)nn21 (single isomer, unassigned) [Example 128] | 6.85 | 141 nM | 66% | – | – |
| O=C1c2cc(COc3cccnc3)nn2CCN1CC1CC1 [Example 170] | <5.00 | > 10000 nM | 45% | – | – |
| CC1Cn2nc(COc3ccccc3)cc2C(=O)N1c1ccc(F)cc1 (racemic) [Example 18] | 6.79 | 162 nM | 70% | – | – |
| Cc1ccc(OCc2cc3n(n2)CCN(c2ccc(F)cc2)C3=O)cc1 [Example 192] | – | 240 nM | – | 57% | – |
| O=C1c2cc(COc3ccc(F)cc3)nn2CCN1CC1CC1 [Example 167] | 6.58 | 263 nM | 64% | – | – |
| Cc1c(COc2ccccc2)nn2c1C(=O)N(c1ccc(F)cc1)CC2 [Example 262] | 6.05 | 891 nM | 32% | – | – |
| Cc1cc(OCc2cc3n(n2)CCN(c2ccc(F)cc2)C3=O)cc(C)n1 [Example 175] | – | > 30200 nM | – | 22% | – |
| O=C1c2cc(COc3ccccc3)nn2CCN1c1ccc(F)cn1 [Example 11] | 6.81 | 155 nM | 79% | – | – |
| O=c1[nH]ccn2nc(COc3ccccc3)cc12 [Example 378] | <4.52 | > 30200 nM | 29% | – | – |
| O=C1c2cc(COc3ccncc3)nn2CCN1CC1CC1 [Example 163] | – | 2240 nM | – | 63% | – |
| Cc1ccnc(OCc2cc3n(n2)CCN(c2ccc(F)cc2)C3=O)c1 [Example 184] | 6.45 | 355 nM | 61% | – | – |
| COCC1Cn2nc(COc3ccccc3)cc2C(=O)N1c1ccc(F)cc1 (stereo not drawn) [Example 267] | 6.03 | 933 nM | 70% | – | – |
| Cc1cccc(OCc2cc3n(n2)CCN(c2ccc(F)cc2)C3=O)n1 [Example 173] | <5.00 | > 10000 nM | 31% | – | – |
| CC1Cn2nc(COc3ccccc3)cc2C(=O)N1c1ccc(F)cc1 (stereo not drawn) [Example 142] | 7.19 | 65 nM | 68% | – | – |

Next, values leading:

| pEC50 | EC50 (read-out: EC50) | Emax (%) | Emax | EC50 (read-out: pEC50 (converted)) | Structure (SMILES) |
| --- | --- | --- | --- | --- | --- |
| 6.40 | 398 nM | 69% | – | – | CN(C)c1nccnc1N1CCn2nc(COc3ccccc3)cc2C1=O [Example 288] |
| – | > 10000 nM | – | 48% | – | COc1cnnc(N2CCn3nc(COc4ccccc4)cc3C2=O)c1 [Example 125] |
| 6.13 | 741 nM | 74% | – | – | Cc1ccncc1N1CCn2nc(COc3ccccc3)cc2C1=O [Example 32] |
| 5.96 | 1100 nM | 66% | – | – | COc1ccnc(N2CCn3nc(COc4ccccc4)cc3C2=O)c1 [Example 115] |
| 6.51 | 309 nM | 71% | – | – | Cc1cncc(N2CCn3nc(COc4ccccc4)cc3C2=O)n1 [Example 92] |
| – | 420 nM | – | 64% | – | O=C1c2cc(COc3ccccc3)nn2CCN1c1cccc(=O)[nH]1 [Example 359] |
| <5.00 | > 10000 nM | 44% | – | – | Cc1[nH]ncc1N1CCn2nc(COc3ccccc3)cc2C1=O [Example 322] |
| 6.72 | 190 nM | 77% | – | – | COCc1cc(F)ccc1N1CCn2nc(COc3ccccc3)cc2C1=O [Example 304] |
| 6.68 | 209 nM | 76% | – | – | Cc1ccc(N2CCn3nc(COc4ccccc4)cc3C2=O)nc1 [Example 16] |
| <5.00 | > 10000 nM | 42% | – | – | O=C1c2cc(COc3ccccc3)nn2CCN1c1ncccn1 [Example 77] |
| 7.39 | 41 nM | 77% | – | – | CN(C)c1ccc(F)c(N2CCn3nc(COc4ccccc4)cc3C2=O)n1 [Example 283] |
| 7.09 | 81 nM | 65% | – | – | Cc1cccc(N2CCn3nc(COc4ccccc4)cc3C2=O)c1 [Example 48] |
| 6.78 | 170 nM | 72% | – | – | COc1nc(N2CCn3nc(COc4ccc(F)cc4)cc3C2=O)ncc1C [Example 230] |
| 6.75 | 178 nM | 72% | – | – | Cc1ccc(F)c(N2CCn3nc(COc4ccccc4)cc3C2=O)n1 [Example 88] |
| 5.69 | 2000 nM | 67% | – | – | COc1cncnc1N1CCn2nc(COc3ccccc3)cc2C1=O [Example 118] |
| 7.14 | 72 nM | 70% | – | – | O=C1c2cc(COc3ccccc3)nn2CCN1c1ccc2nonc2c1 [Example 375] |

| pEC50 | EC50 (read-out: EC50) | Emax (%) | Emax | EC50 (read-out: pEC50 (converted)) | Structure (SMILES) |
| --- | --- | --- | --- | --- | --- |
| 6.26 | 550 nM | 67% | – | – | O=C1c2cc(COc3ccccc3)nn2CCN1c1ncccc1F [Example 81] |
| 5.66 | 2190 nM | 48% | – | – | COc1cccnc1N1CCn2nc(COc3ccccc3)cc2C1=O [Example 79] |
| <5.00 | > 10000 nM | 61% | – | – | Cn1cc(N2CCn3nc(COc4ccccc4)cc3C2=O)cn1 [Example 320] |
| 7.19 | 65 nM | 68% | – | – | Cc1ccc(F)cc1N1CCn2nc(COc3ccccc3)cc2C1=O [Example 61] |
| 6.53 | 295 nM | 78% | – | – | COc1cnc(N2CCn3nc(COc4ccccc4)cc3C2=O)cn1 [Example 101] |
| 7.03 | 93 nM | 72% | – | – | COc1nccnc1N1CCn2nc(COc3ccccc3)cc2C1=O [Example 103] |
| 6.46 | 347 nM | 69% | – | – | COc1ccc(F)c(N2CCn3nc(COc4ccccn4)cc3C2=O)n1 [Example 208] |
| 5.73 | 1860 nM | 64% | – | – | O=C1c2cc(COc3ccccc3)nn2CCN1c1cccnc1 [Example 13] |
| 7.40 | 40 nM | 73% | – | – | O=C1c2cc(COc3ccccc3)nn2CCN1c1cccc(Cl)n1 [Example 365] |
| – | 3400 nM | – | 72% | – | O=C1c2cc(COc3ccccc3)nn2CCN1c1cnc2cnccn12 [Example 374] |
| – | 389 nM | – | 53% | – | COc1ncc(C)c(N2CCn3nc(COc4ccccc4)cc3C2=O)n1 [Example 106] |
| 6.82 | 150 nM | 54% | – | – | N#Cc1cccc(N2CCn3nc(COc4ccccc4)cc3C2=O)n1 [Example 95] |
| 7.62 | 24 nM | 69% | – | – | Cc1cccc(N2CCn3nc(COc4ccccc4)cc3C2=O)c1C [Example 56] |
| 7.01 | 98 nM | 68% | – | – | COc1nc(N2CCn3nc(COc4ccccc4)cc3C2=O)ncc1C [Example 97] |
| – | > 10000 nM | – | 55% | – | O=C1c2cc(COc3ccccc3)nn2CCN1c1ccc2nccnc2n1 [Example 373] |

Source: patent publication US8592422B2, “Bicyclic triazole and pyrazole lactams as allosteric modulators of mGluR5 receptors” (Vanderbilt University, priority 2010, dated 2013)
